Measured values: patent publication US8796231B2, “Pest control composition” (Sumitomo Chemical Company, Limited, priority 2010, dated 2014)

Columns and labels:
[1] = tested on: Spodoptera litura; experiment: Test Example 1: cabbage leaf immersion test, insecticidal rate on third-instar larvae; format: in vivo; settings: cabbage leaf immersed 60 seconds, after 4 days, 3 replicates
Experimental: (§1) A suspension concentrate containing 10.0% by weight of etoxazole [product name: Baroque (registered trademark) flowable, manufactured by Kyoyu Agri Co., Ltd.] was diluted with water containing 0.02% by volume of a spreading agent [product name: Sindain (registered trademark), manufactured by Sumitomo Chemical Co., Ltd.] so that the concentration of etoxazole became 25 ppm.
(§2) A suspension concentrate containing 11.7% by weight of spinetoram (weight ratio of spinetoram J:spinetoram L=75:25) was diluted with water containing 0.02% by volume of a spreading agent [product name: Sindain (registered trademark), manufactured by Sumitomo Chemical Co., Ltd.] so that the concentration of spinetoram became 7.31 ppm.
(§3) The water dilution of spinetoram was mixed with an equal amount of the water dilution of etoxazole to prepare a test solution.
The water dilution of etoxazole and the water dilution of spinetoram were respectively diluted with an equal amount of water containing 0.02% by volume of the same spreading agent as mentioned above to prepare a 12.5 ppm water dilution of etoxazole and a 3.66 ppm water dilution of spinetoram.
A cabbage was planted in a pot (volume: 860 ml) and grown until the fourth leaf stage. The leaves of the cabbage were cut off one by one. […]
An insect death rate was calculated according to the following equation. […]

[2] = tested on: Panonychus citri; experiment: Test Example 2: Satsuma mandarin orange leaf piece immersion test, insecticidal rate on female imagoes; format: in vivo; settings: mandarin orange leaf piece immersed 60 seconds, after 6 days, 3 replicates
Experimental: as §1, with “1.56” for “25”
as §2, with “6.25” for “7.31”
as §3
The water dilution of etoxazole and the water dilution of spinetoram were respectively diluted with an equal amount of water containing 0.02% by volume of the same spreading agent as mentioned above to prepare a 0.78 ppm water dilution of etoxazole and a 3.13 ppm water dilution of spinetoram.
Leaves were taken from a cultivated Satsuma mandarin orange tree, and cut into 2-cm-square pieces. One of the pieces was immersed in the test solution for 60 seconds. […]
An insecticidal rate was calculated in the same manner as Test Example 1. […]

spinetoram
Insecticidal rate ([1]; 3.66 ppm active ingredient): 43.3% | Insecticidal rate ([2]; 3.13 ppm active ingredient): 23.1%

CCOc1cc(C(C)(C)C)ccc1C1COC(c2c(F)cccc2F)=N1 (stereo not shown) [Etoxazole, 2-(2,6-difluorophenyl)-4-[4-(1,1-dimethylethyl)-2-ethoxyphenyl]-4,5-dihydrooxazole]
Insecticidal rate ([1]; 12.5 ppm active ingredient): 26.7% | Insecticidal rate ([2]; 0.78 ppm active ingredient): 7.7%
